Legend:
Test in all cases: in vitro antibacterial activity, MIC microdilution
[1] = test system: Enterococcus faecalis ATCC 7,080 (L 149); type: cell-based; conditions: Mueller-Hinton broth, 0.01% bovine serum albumin, 37° C., 18-24 hours
Method: (§1) The in vitro antibacterial activity of the compounds is determined by means of standard […] tests in microtiter. Iso-Sensitest broth (Oxoid) is used for all bacteria except streptococci (Todd-Wewitt broth, Difco) and enterococci (Mueller-Hinton, Difco). Broth cultures are diluted so that the final inoculum was about 5×10^5 cfu/ml (colony forming units per ml). All broth microdilution MICs are performed in the presence of 0.01% bovine serum albumin (Pentax fraction V, Sigma).

[2] = test system: S. epidermidis ATCC 12,228 (L 147); type: cell-based; conditions: Iso-Sensitest broth, 0.01% bovine serum albumin, 37° C., 18-24 hours
Method: as §1

[3] = test system: S. epidermidis clin. isol. (L 533); type: cell-based; conditions: Iso-Sensitest broth, 0.01% bovine serum albumin, 37° C., 18-24 hours
Method: as §1

[4] = test system: S. haemolyticus clin, isol. (L 602); type: cell-based; conditions: Iso-Sensitest broth, 0.01% bovine serum albumin, 37° C., 18-24 hours
Method: as §1

[5] = test system: Staph. aurevi Tour (L 165); type: cell-based; conditions: Iso-Sensitest broth, 0.01% bovine serum albumin, 37° C., 18-24 hours
Method: as §1

[6] = test system: Strep. pneumoniae UC41 (L 44); type: cell-based; conditions: Todd-Wewitt broth, 0.01% bovine serum albumin, 37° C., 18-24 hours
Method: as §1

[7] = test system: s. aureus clin. isol. (L 561); type: cell-based; conditions: Iso-Sensitest broth, 0.01% bovine serum albumin, 37° C., 18-24 hours
Method: as §1

[8] = test system: Strep. pyogenes C203 (L 49); type: cell-based; conditions: Todd-Wewitt broth, 0.01% bovine serum albumin, 37° C., 18-24 hours
Method: as §1, with “(Todd-[…]” for “(Todd-Wewitt”, “ml).” for “ml). All broth microdilution MICs are performed in the presence of 0.01% bovine serum albumin (Pentax fraction V, Sigma).”

s. aureus Smith (L 819) = type: cell-based; conditions: Iso-Sensitest broth, 0.01% bovine serum albumin, 37° C., 18-24 hours
Method: as §1, with “(Todd-[…]” for “(Todd-Wewitt”, “ml).” for “ml). All broth microdilution MICs are performed in the presence of 0.01% bovine serum albumin (Pentax fraction V, Sigma).”

[9] = test system: E. faecalis clin. isol. (L 502); type: cell-based, Enterococcus faecalis; conditions: for MIC: E. faecalis clin. isol. (L 502), Mueller-Hinton broth, 0.01% bovine serum albumin, 37° C., 18-24 hours
Method: as §1

| Molecule | MIC [1] | MIC [2] | MIC [3] | MIC [4] | MIC [5] | MIC [6] | MIC [7] | MIC [8] | MIC (s. aureus Smith (L 819)) | MIC [9] | activity against a clinical isolate of Enterococcus faecalis (in words) ([9]; clinical isolate of Enterococcus faecalis) |
| --- | --- | --- | --- | --- | --- | --- | --- | --- | --- | --- | --- |
| N[C@H]1C(=O)N[C@@H]2Cc3ccc(c(Cl)c3)Oc3cc4cc(c3O)Oc3ccc(cc3Cl)[C@@H](O)[C@@H]3NC(=O)[C@H](NC(=O)[C@@H]4NC(=O)[C@@H](NC2=O)c2cc(O)cc(c2)Oc2cc1ccc2O)c1ccc(O)c(c1)-c1c(O)cc(O)cc1[C@@H](C(=O)O)NC3=O [teicoplanin aglycon] | 0.13 mg/1 | 0.06 mg/1 | 0.016 mg/1 | 0.25 mg/1 | 0.13 mg/1 | 0.13 mg/1 | 0.13 mg/1 | 0.13 mg/1 | 0.06 mg/1 | > 128 mg/1 |  |
| (L-phenylalanyl)^3 -(D-lysyl)^15 -aglucoteicoplanin dalbaheptide methyl ester | 0.5 mg/1 | 0.13 mg/1 | 0.13 mg/1 | 0.5 mg/1 | 0.13 mg/1 | 0.13 mg/1 | 0.06 mg/1 | 0.25 mg/1 | 0.13 mg/1 | 16 mg/1 | surprisingly active |
| teicoplanin | 0.13 mg/1 | 8 mg/1 | 8 mg/1 | 32 mg/1 | 0.13 mg/1 | 0.13 mg/1 | 8 mg/1 | 0.13 mg/1 | 0.25 mg/1 | > 128 mg/1 |  |

Source: US5674840A, “Synthetic aglucodalbaheptide antibiotics” (Gruppo Lepetit SpA, priority 1993, dated 1997)
